How the values were obtained:
PBMC = experiment: Cytotoxicity against human PBMC cells; assay type: cell-based; conditions: pbmc
[1] = target: T1, Nonstructural protein 5A (Hepatitis C virus) (UniProt Q5L478); experiment: Inhibition of HCV NS5A assessed as antiviral activity against HCV by viral replicon assay; conditions: Hepacivirus hominis
T1 sequence (whole entry): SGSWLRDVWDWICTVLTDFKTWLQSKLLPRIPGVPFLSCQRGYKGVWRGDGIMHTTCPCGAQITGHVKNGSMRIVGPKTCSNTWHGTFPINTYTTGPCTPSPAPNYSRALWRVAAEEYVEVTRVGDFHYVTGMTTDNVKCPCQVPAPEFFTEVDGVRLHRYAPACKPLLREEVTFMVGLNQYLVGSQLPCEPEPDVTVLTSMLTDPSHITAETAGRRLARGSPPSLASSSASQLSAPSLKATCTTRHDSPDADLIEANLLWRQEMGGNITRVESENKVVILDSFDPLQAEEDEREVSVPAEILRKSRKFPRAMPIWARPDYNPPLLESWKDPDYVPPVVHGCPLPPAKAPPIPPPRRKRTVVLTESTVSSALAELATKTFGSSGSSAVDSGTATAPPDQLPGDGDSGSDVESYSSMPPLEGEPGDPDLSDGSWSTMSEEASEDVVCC

Vero = experiment: Cytotoxicity against african green monkey Vero cells; assay type: cell-based; conditions: chlorocebus sabaeus
CCRF-CEM = experiment: Cytotoxicity against human CEM cells; assay type: cell-based
[2] = Cytotoxicity against human HuH7 cells; assay type: cell-based, Huh-7
Liver microsomes [3] = experiment: Intrinsic clearance in human liver microsomes assessed per mg protein at 1 uM measured 5 to 60 mins post dose by LC-MS/MS nethod; assay type: ADME, Microsome
CYP1A2 = target: T2, CYP1A2 (Homo sapiens, UniProt P05177); experiment: (§1) Inhibition of CYP1A2; assay type: ADME
T2 sequence (P05177 whole entry): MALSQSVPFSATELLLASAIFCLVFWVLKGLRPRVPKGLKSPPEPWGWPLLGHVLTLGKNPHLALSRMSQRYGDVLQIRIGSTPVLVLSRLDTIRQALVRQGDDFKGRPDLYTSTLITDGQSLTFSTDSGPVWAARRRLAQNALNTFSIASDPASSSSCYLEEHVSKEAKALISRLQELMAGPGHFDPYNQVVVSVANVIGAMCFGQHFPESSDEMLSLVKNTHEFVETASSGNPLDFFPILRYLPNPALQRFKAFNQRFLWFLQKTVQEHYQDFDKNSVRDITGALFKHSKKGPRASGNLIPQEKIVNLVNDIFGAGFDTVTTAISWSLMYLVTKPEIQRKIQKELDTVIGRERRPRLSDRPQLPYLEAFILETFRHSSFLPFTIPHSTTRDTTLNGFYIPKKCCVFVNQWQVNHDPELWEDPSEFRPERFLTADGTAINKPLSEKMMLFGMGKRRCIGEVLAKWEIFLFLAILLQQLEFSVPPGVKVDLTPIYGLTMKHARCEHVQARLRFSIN

Cytochrome P450 1A2 = target: T3, Cytochrome P450 1A2 (Homo sapiens, UniProt P05177); experiment: as §1; assay type: ADME
T3 sequence (P05177 whole entry): T2 sequence (P05177 whole entry)

CYP2D6 = CYP2D6 (Homo sapiens, UniProt P10635); experiment: (§2) Inhibition of CYP2D6; assay type: ADME
CYP2D6, sequence (P10635 whole entry): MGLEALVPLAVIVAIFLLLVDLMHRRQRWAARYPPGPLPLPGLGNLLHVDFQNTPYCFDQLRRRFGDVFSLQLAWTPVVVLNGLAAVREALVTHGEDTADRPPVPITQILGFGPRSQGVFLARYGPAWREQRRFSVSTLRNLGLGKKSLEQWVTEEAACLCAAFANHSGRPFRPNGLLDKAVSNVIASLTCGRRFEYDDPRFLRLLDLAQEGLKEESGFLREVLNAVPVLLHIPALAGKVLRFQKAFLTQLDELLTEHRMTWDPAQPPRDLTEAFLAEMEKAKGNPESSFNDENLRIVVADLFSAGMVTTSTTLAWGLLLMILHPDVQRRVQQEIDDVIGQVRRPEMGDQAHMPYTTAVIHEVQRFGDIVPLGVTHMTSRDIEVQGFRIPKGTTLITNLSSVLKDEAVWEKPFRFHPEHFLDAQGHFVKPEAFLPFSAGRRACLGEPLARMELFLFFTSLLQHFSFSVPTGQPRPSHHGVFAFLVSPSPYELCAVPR

Cytochrome P450 2D6 = Cytochrome P450 2D6 (Homo sapiens, UniProt P10635); experiment: as §2; assay type: ADME
Cytochrome P450 2D6, sequence (P10635 whole entry): as above

CYP3A4 = CYP3A4 (Homo sapiens, UniProt P08684); experiment: (§3) Inhibition of CYP3A4; assay type: ADME
CYP3A4, sequence (P08684 whole entry): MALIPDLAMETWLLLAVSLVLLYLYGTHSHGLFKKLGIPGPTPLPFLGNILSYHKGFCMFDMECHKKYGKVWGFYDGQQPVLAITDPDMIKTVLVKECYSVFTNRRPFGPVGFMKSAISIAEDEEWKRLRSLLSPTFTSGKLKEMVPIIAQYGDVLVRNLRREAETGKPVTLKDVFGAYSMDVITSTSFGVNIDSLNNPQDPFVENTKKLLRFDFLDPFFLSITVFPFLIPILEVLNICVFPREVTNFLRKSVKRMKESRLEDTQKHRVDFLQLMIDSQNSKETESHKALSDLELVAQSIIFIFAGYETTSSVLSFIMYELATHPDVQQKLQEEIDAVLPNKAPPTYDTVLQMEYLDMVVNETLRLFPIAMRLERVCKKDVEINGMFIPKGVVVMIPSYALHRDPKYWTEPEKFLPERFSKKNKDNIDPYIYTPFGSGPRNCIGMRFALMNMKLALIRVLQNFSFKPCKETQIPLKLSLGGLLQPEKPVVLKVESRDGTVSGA

Cytochrome P450 3A4 = Cytochrome P450 3A4 (Homo sapiens, UniProt P08684); experiment: as §3; assay type: ADME
Cytochrome P450 3A4, sequence (P08684 whole entry): as above

Liver microsomes [4] = experiment: Half life in human liver microsomes at 1 uM measured 5 to 60 mins post dose by LC-MS/MS nethod; assay type: ADME, Microsome
CYP2C9 = CYP2C9 (Homo sapiens, UniProt P11712); experiment: (§4) Inhibition of CYP2C9; assay type: ADME
CYP2C9, sequence (P11712 whole entry): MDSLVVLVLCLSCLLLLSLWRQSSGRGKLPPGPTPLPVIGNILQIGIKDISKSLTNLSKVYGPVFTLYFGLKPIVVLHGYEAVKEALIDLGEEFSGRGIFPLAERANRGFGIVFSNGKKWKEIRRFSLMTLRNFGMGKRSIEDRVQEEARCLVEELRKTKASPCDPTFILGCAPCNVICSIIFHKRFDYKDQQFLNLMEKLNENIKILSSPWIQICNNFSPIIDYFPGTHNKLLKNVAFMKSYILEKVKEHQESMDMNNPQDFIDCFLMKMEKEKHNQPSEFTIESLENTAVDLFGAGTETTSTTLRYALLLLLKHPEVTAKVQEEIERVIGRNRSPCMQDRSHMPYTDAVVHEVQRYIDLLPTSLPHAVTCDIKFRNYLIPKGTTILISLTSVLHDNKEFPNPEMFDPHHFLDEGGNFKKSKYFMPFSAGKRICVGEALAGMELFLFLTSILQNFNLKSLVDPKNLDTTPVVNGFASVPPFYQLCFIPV

Cytochrome P450 2C9 = Cytochrome P450 2C9 (Homo sapiens, UniProt P11712); experiment: as §4; assay type: ADME
Cytochrome P450 2C9, sequence (P11712 whole entry): as above

[5] = Chemical stability in phosphate buffer assessed as compound degradation at pH 7 at 20 degC measured between 2 to 48 hrs during 48 hrs incubation period; assay type: physicochemical; conditions: pH 7, 48 h
[6] = Cytotoxicity against human primary lymphocytes; assay type: cell-based; conditions: lymphocyte
[7] = Chemical stability in phosphate buffer assessed as compound degradation at pH 3 at 20 degC measured between 1 to 48 hrs during 48 hrs incubation period; conditions: pH 3, 48 h

Structure (SMILES)	CC50 (PBMC)	EC90 [1]	CC50 (Vero)	CC50 (CCRF-CEM)	CC50 [2]	CLint (Liver microsomes [3])	IC90 (CYP1A2)	IC50 (Cytochrome P450 1A2)	IC90 (CYP2D6)	IC50 (Cytochrome P450 2D6)	IC90 (CYP3A4)	IC50 (Cytochrome P450 3A4)	t1/2 (Liver microsomes [4])	IC90 (CYP2C9)	IC50 (Cytochrome P450 2C9)	Stability [5]	Activity [6]	Stability [7]
COC(=O)N[C@H](C(=O)N1CCC[C@H]1c1ncc(-c2ccc(-c3ccc(-c4[nH]c([C@@H]5CCCN5C(=O)[C@@H](NC(=O)OC)C(C)C)nc4F)cc3)cc2)[nH]1)C(C)C	16 µM	0.0525 nM	83 µM	2.8 µM	> 1 µM													
COC(=O)N[C@H](C(=O)N1C[C@H](n2cc(C(=O)OC)nn2)C[C@H]1c1ncc(-c2ccc(-c3ccc(-c4cnc([C@@H]5C[C@@H](n6cc(C(=O)OC)nn6)CN5C(=O)[C@@H](NC(=O)OC)C(C)C)[nH]4)cc3)cc2)[nH]1)C(C)C	6.6 µM	0.0428 nM	> 100 µM	10.7 µM	> 1 µM													
COC(=O)N[C@H](C(=O)N1CCC[C@H]1c1nc(F)c(-c2ccc(-c3ccc(-c4[nH]c([C@@H]5CCCN5C(=O)[C@@H](NC(=O)OC)C(C)C)nc4F)cc3)cc2)[nH]1)C(C)C	19 µM	0.0212 nM	> 100 µM	3 µM	> 1 µM	5.6 µL/min/mg	> 100 µM	> 100 µM	> 100 µM	> 100 µM	> 100 µM	3.1 µM	2.063 h	> 100 µM	> 100 µM	Stable	Toxic	Stable
COC(=O)N[C@H](C(=O)N1CCC[C@H]1c1nc(Br)c(-c2ccc(-c3ccc(-c4[nH]c([C@@H]5CCCN5C(=O)[C@@H](NC(=O)OC)C(C)C)nc4Br)cc3)cc2)[nH]1)C(C)C	2.9 µM	0.014 nM	84 µM	5.7 µM	> 1 µM	10.3 µL/min/mg							1.12 h			Stable		Stable
COC(=O)N[C@H](C(=O)N1C[C@H](N=[N+]=[N-])C[C@H]1c1nc(Br)c(-c2ccc(-c3ccc(-c4[nH]c([C@@H]5C[C@@H](N=[N+]=[N-])CN5C(=O)[C@@H](NC(=O)OC)C(C)C)nc4Br)cc3)cc2)[nH]1)C(C)C	19.8 µM	0.0216 nM	> 100 µM	10.8 µM	> 1 µM													
COC(=O)N[C@H](C(=O)N1CCC[C@H]1c1nc(-c2ccccc2)c(-c2ccc(-c3ccc(-c4[nH]c([C@@H]5CCCN5C(=O)[C@@H](NC(=O)OC)C(C)C)nc4-c4ccccc4)cc3)cc2)[nH]1)C(C)C	> 100 µM	0.7 nM	> 100 µM	37.4 µM	> 1 µM													
COC(=O)N[C@H](C(=O)N1C[C@@H](N=[N+]=[N-])C[C@H]1c1ncc(-c2ccc(-c3ccc(-c4cnc([C@@H]5C[C@H](N=[N+]=[N-])CN5C(=O)[C@@H](NC(=O)OC)C(C)C)[nH]4)cc3)cc2)[nH]1)C(C)C	20.3 µM	0.0352 nM	> 100 µM	18.4 µM	> 1 µM													
COC(=O)N[C@H](C(=O)N1CCC[C@H]1c1nc(-c2ccc(-c3ccc(-c4c[nH]c([C@@H]5CCCN5C(=O)[C@@H](NC(=O)OC)C(C)C)n4)cc3)cc2)c[nH]1)C(C)C					> 1 µM								0.938 h		59.5 µM			
COC(=O)N[C@H](C(=O)N1CCC[C@H]1c1nc(I)c(-c2ccc(-c3ccc(-c4[nH]c([C@@H]5CCCN5C(=O)[C@@H](NC(=O)OC)C(C)C)nc4I)cc3)cc2)[nH]1)C(C)C	4.7 µM	0.011 nM	> 100 µM	35 µM	> 1 µM	18 µL/min/mg							0.642 h			Stable	Toxic	Stable
COC(=O)N[C@H](C(=O)N1C[C@@H](n2cc(-c3ccccc3)nn2)C[C@H]1c1ncc(-c2ccc(-c3ccc(-c4cnc([C@@H]5C[C@H](n6cc(-c7ccccc7)nn6)CN5C(=O)[C@@H](NC(=O)OC)C(C)C)[nH]4)cc3)cc2)[nH]1)C(C)C	96 µM	> 10 nM	> 100 µM		> 1 µM													

From ChEMBL document CHEMBL2046362, “Synthesis and evaluation of novel potent HCV NS5A inhibitors” (Bioorg Med Chem Lett, 2012)
